This is an account of results in publication PMC4890880 (ACS infectious diseases, 2016).

The subject of series [1] is Pb-Luc exoerythrocytic-stage parasites in Huh7.5.1 cells. In words: Pb-Luc time of action assay (modified 384-well luciferase assay). The conditions noted are these: Plasmodium berghei.
Series [2] relates to Plasmodium berghei (Pb-Luc) exoerythrocytic-stage parasites. In words: microbe, parasite or virus in culture. The conditions noted are these: for inhibition at 10 µM: read-out: PbLuc max inhibition (%) @ 10 uM.
Series [3] deals with P. falciparum 3D7 parasites. In words: Asexual erythrocytic-stage SYBR Green I proliferation assay, 1536-well. The format is cell-based, Plasmodium falciparum. The conditions noted are these: Plasmodium falciparum.
In series [4] the test system is Plasmodium berghei (Pb-Luc) exoerythrocytic-stage parasites.
Series [5] concerns P. falciparum Dd2 erythrocytic stage. In words: Dd2 erythrocytic-stage assay (SYBR Green) for DOS compounds. The conditions noted are these: read-out: Erythrocytic-stage (Pf Dd2) IC50; Figure 4b.
For series [6], the system named is HepG2-A16-CD81EGFP cells.
The test system of series [7] is HepG2-A16-CD81EGFP cells. In words: cells. The conditions noted are these: Homo sapiens; for pIC50: HepG2, read-out: Tox IC50; for inhibition at 10 µM: HepG2, read-out: Tox max inhibition (%) @ 10 uM.
Series [8] has as its system Plasmodium cynomolgi exoerythrocytic-stage small (hypnozoites) and large (liver stage schizonts) parasites. In words: P. cynomolgi liver assay in primary hepatocytes. To be noted: Plasmodium cynomolgi, Hepatocyte.
In series [9] the target is QuantiLum Recombinant Luciferase (Photinus pyralis, UniProt P08659). In words: Bioluminescence quantification of compound luciferase inhibition. The conditions noted are these: for Emax: read-out: LucInhib max inhibition.
Setting [10] is: Huh-7.5.1, read-out: Pb-Luc IC50, Treatment: 1.
Setting [11] is: Huh-7.5.1, read-out: Pb-Luc IC50, Treatment: 2.
Setting [12] is: Huh-7.5.1, read-out: Pb-Luc IC50, Treatment: 3.
Setting [13] is: Huh-7.5.1, read-out: Pb-Luc IC50, Treatment: 4.
The mark [14] stands for this setting: Huh-7.5.1, read-out: Pb-Luc IC50, Treatment: 5.
Where [15] appears, read: Huh-7.5.1, read-out: Pb-Luc IC50, Treatment: 6.
The mark [16] stands for this setting: read-out: P. berghei (liver) IC50, Table S1, validation set of 50 antimalarials, Pb-Luc.
The mark [17] stands for this setting: 3D7, read-out: P. falciparum (blood) IC50, Table S1, validation set of 50 antimalarials.
[18] abbreviates: read-out: Exoerythrocytic-stage Pb-Luc IC50, Figure 4b, second assay (value in parentheses).
[19] abbreviates: HepG2, read-out: HepG2 Tox% @ 50 uM rep1.
[20] abbreviates: HepG2, read-out: HepG2 Tox% @ 50 uM rep2.
Setting [21] is: read-out: % inhibition normalized to untreated control, Large.
The mark [22] stands for this setting: read-out: % inhibition normalized to untreated control, Small.
Where [23] appears, read: read-out: Inhibition% @ 50 uM rep1.
The mark [24] stands for this setting: read-out: Inhibition% @ 50 uM rep2.
Setting [25] is: read-out: PbLuc IC50, dose response, 1/3 dilutions, max conc. 10 or 50 uM, unit inferred.
Setting [26] is: read-out: P. berghei (liver) IC50.
Where [27] appears, read: 3D7, read-out: P. falciparum (blood) IC50.

pIC50: −log10 of the molar value. Structures can show the parent of a compound that is named as a salt. Where two headings read alike, the source gives them in different places. A value given as a limit tells only on which side of the number the result lay.

The CC50 is the concentration at which the toxic effect on the cells reaches its halfway point. A higher CC50 goes with lower toxicity to the cells. For orientation: inhibition means the relative decrease from the control value, in per cent.

Sequence of QuantiLum Recombinant Luciferase (P08659 whole entry): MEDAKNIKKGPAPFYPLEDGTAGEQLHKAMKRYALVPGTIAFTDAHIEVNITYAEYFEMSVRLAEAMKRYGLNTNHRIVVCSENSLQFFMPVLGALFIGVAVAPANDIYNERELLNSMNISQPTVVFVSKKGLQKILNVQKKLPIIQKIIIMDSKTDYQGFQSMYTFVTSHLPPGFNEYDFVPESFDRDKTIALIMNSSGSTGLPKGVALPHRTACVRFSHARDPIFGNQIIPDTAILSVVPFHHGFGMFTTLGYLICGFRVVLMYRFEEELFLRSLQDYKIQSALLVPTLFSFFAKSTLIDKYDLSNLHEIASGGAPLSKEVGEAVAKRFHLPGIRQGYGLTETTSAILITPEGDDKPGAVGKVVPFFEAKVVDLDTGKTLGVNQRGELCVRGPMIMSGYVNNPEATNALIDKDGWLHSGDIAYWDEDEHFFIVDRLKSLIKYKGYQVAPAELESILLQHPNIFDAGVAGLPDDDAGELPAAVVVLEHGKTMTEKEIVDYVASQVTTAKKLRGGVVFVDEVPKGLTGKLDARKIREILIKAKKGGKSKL

Regarding `O=C1C(O)=C([C@H]2CC[C@H](c3ccc(Cl)cc3)CC2)C(=O)c2ccccc21` [Atovaquone, reference compound], the pIC50 in series [1] (setting [10]) is 7.47; in series [1] (setting [11]) it was 8.55; in [1] (setting [12]), 8.10; in series [1] (setting [13]), 8.80; in [1] (setting [14]), 8.96; in series [1] (setting [15]) it was 9.05. Further, the pIC50 in series [2] (setting [16]) is 9.60; in [3] (setting [17]), above 9.40.
For `CCCNC(=O)N1[C@H](C#N)[C@H](c2ccc(C#Cc3cccc(F)c3)cc2)[C@H]1CO` [BRD7539], the pIC50 is 8.70 in series [4] (setting [18]); 8.70 in series [4] (read-out: Pb-Luc IC50, Figure 4a, stereoisomers tested in dose response, listed as BRD9781/7539 series SSS); 8.00 in series [5].
Take `O=C(Nc1cccc(F)c1)N1CCCCN2[C@H](CO)[C@@H](c3ccc(C#Cc4cccnc4)cc3)[C@@H]2C1` [BRD47390]: the CC50 with HepG2-A16-CD81EGFP cells [6] was above 10000 nM. Moreover, the pIC50 in [4] (read-out: Exoerythrocytic-stage Pb-Luc IC50, Figure 4b, first assay) was 6.44; in series [4] (setting [18]) it was 6.64; in [5], 5.59.
In the case of `O=C(NCCN1CCCC1)c1cc(-c2ccc(CN3CCOCC3)cc2)nc2ccc(F)cc12` [DDD107498, reference compound], the pIC50 in series [1] (setting [10]) is 8.66; in series [1] (setting [11]), 8.80; in series [1] (setting [12]), 9.10; in series [1] (setting [13]), 8.96; in [1] (setting [14]), 9.05; in series [1] (setting [15]), 9.15.
Turning to `Cc1ccc(N2C3c4ccccc4N(S(=O)(=O)c4ccc(C)cc4)C2c2ccccc2N3S(=O)(=O)c2ccc(C)cc2)cc1` [MMV007160], the pIC50 in [1] (setting [10]) was 6.10; in [1] (setting [11]) it was 6.54; in [1] (setting [12]), 5.54; in series [1] (setting [13]), 6.75; in series [1] (setting [14]), 6.70; in series [1] (setting [15]), 6.75. The pIC50 was below 5.00 with HepG2-A16-CD81EGFP cells [7], below 4.70 in [9] and 7.44 in [2] (setting [25]). In addition, the cytotoxicity at 50 µM with HepG2-A16-CD81EGFP cells [7] (setting [19]) was -4.53%; in the series on HepG2-A16-CD81EGFP cells [7] (setting [20]) it was -10%. The inhibition at 10 µM is 10% with HepG2-A16-CD81EGFP cells [7], 0% in [8] (setting [21]), -11% in series [8] (setting [22]) and 110% in series [2]. For the same molecule, the inhibition at 0.1 µM in series [8] (setting [21]) and in series [8] (setting [22]) was 17% each time. The inhibition at 1 µM was 14% in series [8] (setting [21]) and -25% in series [8] (setting [22]). Moreover, the Emax in series [9] stood at 14%. For the same molecule, the results for the inhibition at 50 µM in [2] (setting [23]) and in series [2] (setting [24]) were 103% and 105%, respectively.
For `COc1ccccc1CNC(=O)CCn1c(=O)[nH]c2ccccc2c1=O` [MMV665916], the pIC50 in [1] (setting [10]) was 5.24; in series [1] (setting [11]) it was 5.24; in series [1] (setting [12]) it was 5.09; in [1] (setting [13]), 5.37; in series [1] (setting [14]), 6.10; in series [1] (setting [15]), 6.43. The pIC50 is below 5.00 in the series with HepG2-A16-CD81EGFP cells [7], below 4.70 in [9] and 7.35 in series [2] (setting [25]). Further, the cytotoxicity at 50 µM in the series on HepG2-A16-CD81EGFP cells [7] (setting [19]) was -21%; with HepG2-A16-CD81EGFP cells [7] (setting [20]), -23%. Besides, the inhibition at 10 µM in the series on HepG2-A16-CD81EGFP cells [7] was -2.14%; in [8] (setting [21]), -13%; in series [8] (setting [22]), -15%; in [2] it was 100%. For the same molecule, the inhibition at 0.1 µM in [8] (setting [21]) stood at 6%; in series [8] (setting [22]), 20%. The values for the inhibition at 1 µM in series [8] (setting [21]) and in series [8] (setting [22]) were 2% and -13%, respectively. In [9], the Emax was 15%. Further, the inhibition at 50 µM in series [2] (setting [23]) and in [2] (setting [24]) was 99% throughout.
For `CC(C)(N)CNC(=O)C[C@H]1CC[C@]2(CC1)OO[C@]1(O2)C2CC3CC(C2)CC1C3` [OZ277, reference compound], the pIC50 in series [2] (setting [16]) was 5.79; in series [3] (setting [17]), 8.64.
For `c1cc([C@H]2CC[C@]3(CC2)OO[C@]2(O3)C3CC4CC(C3)CC2C4)ccc1OCCN1CCOCC1` [OZ439, reference compound] the same measures were 5.28 and 8.55.
For `CCN(CC)CCCC(C)Nc1cc(OC)cc2cccnc12` (stereo not drawn) [Pamaquine, reference compound] the same measures were below 4.90 and below 5.00.
For `N=C(N)c1ccc(OCCCCCOc2ccc(C(=N)N)cc2)cc1` [Pentamidine, reference compound], the pIC50 was 6.54 in series [2] (setting [16]) and 9.30 in series [3] (setting [17]).
Taken in the same sequence, the figures for `Clc1ccc2c(N3CCN(CCCN4CCN(c5ccnc6cc(Cl)ccc56)CC4)CC3)ccnc2c1` [Piperaquine, reference compound] were below 4.90 and 7.14.
Regarding `COc1cc(NC(C)CCCN)c2ncccc2c1` (stereo not drawn) [Primaquine, reference compound], in [8] (setting [21]), the inhibition at 0.1 µM came out at 1%, the inhibition at 1 µM came to 3% and the inhibition at 10 µM was determined as 13%. Further, in [8] (setting [22]), the inhibition at 0.1 µM is 4%, the inhibition at 1 µM came out at 19% and the inhibition at 10 µM stood at 24%. Also, in series [2] (setting [26]), the pIC50 is 6.15. Moreover, the pIC50 in series [3] (setting [27]) is 6.16.
As to `[H]/N=C(\N/C(=N/[H])Nc1ccc(Cl)cc1)NC(C)C` [Proguanil HCL, reference compound], the pIC50 in series [2] (setting [16]) is 5.34; in [3] (setting [17]), 5.20.
For `CCc1nc(N)nc(N)c1-c1ccc(Cl)cc1` [Pyrimethamine, reference compound], the pIC50 is 6.91 in [1] (setting [10]); 7.68 in [1] (setting [11]); 6.60 in series [1] (setting [12]); 7.71 in series [1] (setting [13]); 7.73 in [1] (setting [14]); 7.72 in series [1] (setting [15]). For the same molecule, the pIC50 in series [2] (setting [16]) is 8.29; in series [3] (setting [17]), 7.70.
Consider `COc1ccc2nc3cc(Cl)ccc3c(Nc3cc(CN4CCCC4)c(O)c(CN4CCCC4)c3)c2n1` [Pyronaridine, reference compound], for which the results for the pIC50 in series [2] (setting [16]) and in series [3] (setting [17]) were 5.17 and 8.02, respectively.
For `C=C[C@H]1C[N@@]2CC[C@H]1C[C@@H]2[C@@H](O)c1ccnc2ccc(OC)cc12` [Quinidine, reference compound] the same measures were below 4.90 and 8.54.
Taken in the same sequence, the figures for `C=C[C@H]1C[N@@]2CC[C@H]1C[C@H]2[C@H](O)c1ccnc2ccc(OC)cc12` [Quinine sulfate dihydrate, reference compound] were below 4.90 and 7.91.
For `Cc1cc2nc3c(=O)[nH]c(=O)nc-3n(C[C@H](O)[C@H](O)[C@H](O)CO)c2cc1C` [Riboflavin, reference compound] the same measures were below 4.90 and below 4.20.
With `Nc1ccc(S(=O)(=O)Nc2ncccn2)cc1` [Sulfadiazine, reference compound], the pIC50 in series [2] (setting [26]) was 7.80; in series [3] (setting [17]), below 4.20.
Consider `COc1ncnc(NS(=O)(=O)c2ccc(N)cc2)c1OC` [Sulfadoxine, reference compound], for which the pIC50 was 7.13 in [2] (setting [16]) and below 4.20 in series [3] (setting [17]).
Turning to `COc1cc(C)c2c(Oc3cccc(C(F)(F)F)c3)c(OC)cc(NC(C)CCCN)c2n1` (stereo not drawn) [Tafenoquine, reference compound], the pIC50 in series [2] (setting [16]) is 5.23; in series [3] (setting [17]), 5.55.
Consider `CN(C)[C@@H]1C(O)=C(C(N)=O)C(=O)[C@@]2(O)C(O)=C3C(=O)c4c(O)cccc4[C@@](C)(O)[C@H]3C[C@@H]12` [Tetracycline, reference compound], for which the pIC50 in series [2] (setting [26]) was below 4.90; in [3] (setting [17]), below 5.00.
Take `C=C(NC(=O)C(=C)NC(=O)c1csc(C2=N[C@@H]3c4csc(n4)[C@H]4NC(=O)c5csc(n5)[C@H]([C@](C)(O)[C@@H](C)O)NC(=O)[C@H]5CSC(=N5)/C(=C/C)NC(=O)[C@H]([C@@H](C)O)NC(=O)c5csc(n5)[C@]3(CC2)NC(=O)[C@H](C)NC(=O)C(=C)NC(=O)[C@H](C)NC(=O)[C@H]([C@@H](C)CC)N[C@@H]2C=Cc3c([C@H](C)O)cc(nc3[C@H]2O)C(=O)O[C@@H]4C)n1)C(N)=O` [Thiostrepton, reference compound]: the pIC50 was 5.50 in [2] (setting [26]) and 5.72 in series [3] (setting [27]).
